Test results from patent US20190110476A1, “NOVEL ISOTHIAZOLAMIDES, PROCESSES FOR THEIR PREPARATION AND THEIR USE AS FUNGICIDES” (priority 2014, published 2019).
Marks after values point to notes of the source that are not given here.

assay: Measurement of LogP values by HPLC on reversed phase columns (EEC directive 79/831 Annex V.A8); format: physicochemical
Summary of the method: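 Following EEC directive 79/831 Annex V.A8, lipophilicity was derived from retention on reversed-phase HPLC columns. Separate values are given per diastereoisomer, and UV lambda-max (200–400 nm) was read at the peak signals.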

Row | SMILES | LogP | LogP [a] | LogP [b]
1 | Nc1nsc(C(=O)NCC2CCCCC2)c1Cl [I-002] | 2.40[a] | – | –
2 | COc1ccc(CNc2nsc(C(=O)NCC3=CCCCC3)c2Cl)cc1 [I-084] | 4.02[a] | – | –
3 | CS(C)=Nc1nsc(C(=O)NCC2CCCC2)c1F [II-061] | – | 0.32^[a] | –
4 | Nc1cc(C(=O)NCc2cccc(Cl)c2Cl)sn1 [I-308] | 2.02[a] | – | –
5 | Nc1nsc(C(=O)NCc2c(F)cc(F)cc2F)c1Cl [I-134] | 1.96[a] | – | –
6 | COc1ccc(CNc2nsc(C(=O)NCc3cc(C)ccc3C(C)C)c2Cl)cc1 [I-392] | 4.80[a] | – | –
7 | CN1C2CCC1CC(NC(=O)c1snc(N)c1Cl)C2 (stereo not drawn) [I-607] | −0.20[c] | – | –
8 | CCC(c1ccc(Cl)cc1Cl)N(C(=O)c1snc(N)c1Cl)C1CC1 (stereo not drawn) [I-954] | 3.90[a] | – | –
9 | Cc1nonc1NC(=O)c1snc(N)c1Cl [I-1361] | 1.27[a] | – | –
10 | CS(C)=Nc1nsc(C(=O)NCc2ccc(F)cc2F)c1Cl [II-041] | – | 1.38^[a] | –
11 | Cc1ccc(NC(=O)c2snc(N)c2Cl)cc1 [I-916] | 2.27[a] | – | –
12 | COc1ccc(CNc2nsc(C(=O)N(C3CC3)C(C)c3cccc(C(F)(F)F)c3)c2Cl)cc1 (stereo not drawn) [I-948] | 4.91[a] | – | –
13 | Cc1c(N)nsc1C(=O)NCc1ccc(Cl)cc1 [I-051] | 1.86[a] | – | –
14 | Cc1ccc(CNC(=O)c2snc(N)c2Cl)o1 [I-814] | 1.66[a] | – | –
15 | Nc1nsc(C(=O)NCc2ccccc2F)c1Br [I-832] | 1.79[a] | – | –
16 | COc1cccc(CNC(=O)c2snc(N)c2Cl)c1Cl [I-465] | 2.23[a] | – | –
17 | Cc1ccc(NC(=O)c2snc(N)c2Br)cc1Cl [I-965] | 2.88[a] | – | –
18 | Nc1nsc(C(=O)NCCc2ccc(Cl)cc2)c1Cl [I-971] | 2.46[a] | – | –
19 | COc1ccc(CNc2nsc(C(=O)NCc3ccc(Cl)cc3F)c2Cl)cc1 [I-225] | 4.03[a] | – | –
20 | COc1c(N)nsc1C(=O)NCc1ccccc1F [I-733] | 1.64[a] | – | –
21 | Cc1c(N)nsc1C(=O)NCc1ccc(C(F)(F)F)cc1F [I-104] | 2.18[a] | – | –
22 | COc1ccc2c(c1)CCCN2C(=O)c1snc(N)c1Cl [II-017] | – | 2.11 | 2.06
23 | COc1ccc(CNc2nsc(C(=O)N(Cc3cc(Cl)ccc3Br)C3CC3)c2Cl)cc1 [I-989] | 4.98[a] | – | –
24 | Nc1nsc(C(=O)Nc2cc(F)cc(F)c2)c1Cl [I-866] | 2.54[a] | – | –

Row | SMILES | LogP | LogP [a] | LogP [b]
25 | COc1ccc(CNc2nsc(C(=O)NC(C)c3ccccc3Cl)c2Cl)cc1 (stereo not drawn) [I-112] | 4.16[a] | – | –
26 | O=C(Nc1nscc1Cl)c1ccc(F)cc1 [Z-A-002] | – | 1.74^[a] | –
27 | COc1ccc(CNc2nsc(C(=O)NC(C#N)c3ccc(F)c(F)c3)c2Cl)cc1 (stereo not drawn) [I-1326] | 3.61[a] | – | –
28 | Nc1nsc(C(=O)N(Cc2c(Cl)cccc2Cl)C2CC2)c1Cl [I-208] | 3.02[a] | – | –
29 | CC(C)N(Cc1ccc(Cl)cc1Cl)C(=O)c1snc(N)c1Cl [I-213] | 3.71[a] | – | –
30 | COc1ccc(CNc2nsc(C(=O)NC(C)C3(Cl)CC3)c2Cl)cc1 (stereo not drawn) [I-1250] | 3.90[a] | – | –
31 | Nc1nsc(C(=S)NCc2ccc(F)cc2F)c1Cl [I-1016] | 2.74[a] | – | –
32 | COc1ccc(CNc2nsc(C(=O)NCc3ccc(Cl)cc3)c2Cl)cc1 [I-242] | 3.99[a] | – | –
33 | Nc1nsc(C(=O)NCc2ccccc2F)c1-c1ccc(F)cc1 [I-335] | 2.43[a] | – | –
34 | COc1ccc(CNc2nsc(C(=O)N3CCCc4cccc(C)c43)c2Cl)cc1 [II-067] | – | 4.24 | 4.14
35 | Nc1nsc(C(=O)NCc2ccc(C3CC3)cc2)c1C1CC1 [I-606] | 2.48[a] | – | –
36 | Cc1ccnc(CNC(=O)c2snc(N)c2Cl)n1 [I-039] | 0.83[a] | – | –
37 | CCOC(=O)c1snc(NC(=O)c2ccc(F)cc2)c1Cl [E-VII-010] | – | 2.62^[a] | –
38 | COc1ccc(CNc2nsc(C(=O)NC3CC4CCC3(C)C4(C)C)c2Cl)cc1 (stereo not drawn) [I-572] | 5.02[a]; | – | –
39 | O=C(NCc1ncc(C(F)(F)F)cc1Cl)c1snc(NC(=O)C2CC2)c1Cl [I-296] | 2.71[a] | – | –
40 | O=C(NCC1CCCOC1)c1snc(N=C(c2ccccc2)c2ccccc2)c1Cl (stereo not drawn) [II-007] | – | 3.71^[a] | –
41 | CCCS(CC)=Nc1nsc(C(=O)NCc2cc(F)c(F)cc2F)c1F (stereo not drawn) [II-103] | – | 2.10^[a] | –
42 | CCOc1ccccc1CNC(=O)c1snc(NCc2ccc(OC)cc2)c1Cl [I-1247] | 4.08[a] | – | –
43 | COc1ccc(CNc2nsc(C(=O)NC(=O)C3CCCCC3)c2Cl)cc1 [I-982] | 3.83[a] | – | –
44 | Nc1nsc(C(=O)N2CCCc3ccc(C(F)(F)F)cc32)c1Cl [II-018] | – | 2.78 | 2.71
45 | COc1ccc(CNc2nsc(C(=O)NC(C)c3nc(C(C)C)no3)c2Cl)cc1 (stereo not drawn) [I-1332] | 3.46[a] | – | –
46 | COc1ccc(CNc2nsc(C(=O)NCc3noc(C)n3)c2Cl)cc1 [I-1270] | 2.47[a] | – | –
47 | COc1ccc(Nc2nsc(C(=O)N[C@@H](C)C3CCCCC3)c2Cl)cc1 [I-068] | 4.59[a] | – | –
48 | CN(C)C=Nc1nsc(C(=O)NCc2ccc(Cl)cc2)c1Cl [II-031] | – | 2.41^[a] | –

Row | SMILES | LogP | LogP [a] | LogP [b]
49 | CCOC(=O)c1snc(NC(=O)C(C)(C)C)c1Cl [E-VII-018] | – | 2.48^[a] | –
50 | O=C(NCc1cc(Cl)cc(Cl)c1)c1cc(N(Cc2ccccc2)Cc2ccccc2)ns1 [I-312] | 2.90[a] | – | –
51 | CC(c1cc(Cl)cc(Cl)c1)N(C(=O)c1cc(N(Cc2ccccc2)Cc2ccccc2)ns1)C1CC1 (stereo not drawn) [I-912] | 6.54[a] | – | –
52 | Nc1cc(C(=O)NCc2ccc(F)cc2F)sn1 [I-031] | 1.56[a] | – | –
53 | COc1ccc(CNc2nsc(C(=O)NC(Cc3ccccc3)C3CCCCC3)c2Cl)cc1 (stereo not drawn) [I-1079] | 5.10[b] | – | –
54 | O=C(NCc1ccc(Cl)cc1)c1snc(N(C(=O)c2ccccc2)C(=O)c2ccccc2)c1Cl [I-582] | 4.39[a] | – | –
55 | COc1ccc(CNc2nsc(C(=O)NCc3cccc4ccccc34)c2Cl)cc1 [I-1268] | 4.11[a] | – | –
56 | O=C(Nc1nsc(C(=O)O)c1Cl)c1ccc(F)cc1 [E-VIII-007] | – | 1.02^[a] | –
57 | Nc1nsc(C(=O)N(Cc2c(Cl)cccc2C(F)(F)F)C2CC2)c1Cl [I-215] | 3.19[a] | – | –
58 | CCS(CC)=Nc1nsc(C(=O)NCC2CCCCC2)c1Cl [II-052] | – | 2.00^[a] | –
59 | Cc1ccc(CNC(=O)c2snc(N)c2C)c(F)c1 [I-145] | 1.81[a] | – | –
60 | CCCC(c1ccccc1)N(C(=O)c1snc(NCc2ccc(OC)cc2)c1Cl)C1CC1 (stereo not drawn) [I-899] | 5.25[a] | – | –
61 | COc1ccc(CNc2nsc(C(=O)N(Cc3ccc(F)cc3F)C3CC3)c2Cl)c(OC)c1 [I-1012] | 4.46[a] | – | –
62 | C[C@H](NC(=S)c1snc(NCC(F)(F)F)c1Cl)C1CCCCC1 [I-429] | 5.14[a] | – | –
63 | COc1ccc(CNc2nsc(C(=O)NCc3cccn3C)c2Cl)cc1 [I-1211] | 3.15[a] | – | –
64 | COc1ccc(CNc2nsc(C(=O)NC(C)c3cccc(OC)c3)c2Cl)cc1 (stereo not drawn) [I-1234] | 3.68[a] | – | –
65 | CC1CCCCC1NC(=O)c1snc(N)c1I (stereo not drawn) [I-1564] | 2.14[a] | – | –
66 | CCn1cc(C(C)NC(=O)c2snc(NCc3ccc(OC)cc3)c2Cl)c(C)n1 (stereo not drawn) [I-1349] | 2.73[a] | – | –
67 | CC(C)c1ccccc1CN(C(=O)c1snc(N)c1Cl)C1CC1 [I-118] | 3.33[a] | – | –
68 | CC(C)CNC(=O)c1cc(N)ns1 [I-985] | 1.07[a] | – | –
69 | Nc1nsc(C(=O)NCc2ccccc2)c1Cl [I-004] | 1.69[a] | – | –
70 | COc1ccc(CNc2nsc(C(=O)N3CCc4ccccc43)c2Cl)cc1 [II-069] | – | 3.83 | 3.76
71 | O=C(c1cc(N(Cc2ccccc2)Cc2ccccc2)ns1)N(Cc1ccccc1)C1CC1 [I-910] | 5.36[a] | – | –
72 | Nc1nsc(C(=O)NCc2c(F)ccc(F)c2F)c1Cl [I-129] | 1.91[a] | – | –

Row | SMILES | LogP | LogP [a] | LogP [b]
73 | CCOc1c(N)nsc1C(=O)NCC1CCCCCC1 [I-728] | 2.83[a] | – | –
74 | Cc1ccc(NC(=O)c2snc(N(Cc3ccccc3)Cc3ccccc3)c2Br)cc1Cl [I-951] | 6.35[a] | – | –
75 | CCn1ncc(CNC(=O)c2snc(NCc3ccc(OC)cc3)c2Cl)c1C [I-1237] | 2.59[a] | – | –
76 | CC(C)(C)OC(=O)Nc1nsc(C(=O)NCC2CCCCC2Cl)c1Cl (stereo not drawn) [I-1578] | 3.52[a] | – | –
77 | Nc1nsc(C(=O)NCc2cc(F)cc(F)c2)c1Cl [I-024] | 2.11[a] | – | –
78 | COc1ccc(CNc2nsc(C(=O)N(Cc3ccc(Cl)cc3Cl)C3CCC3)c2Cl)cc1 [I-934] | 5.56[a] | – | –
79 | Nc1nsc(C(=O)NCc2cc(Cl)ccc2C(F)(F)F)c1Cl [I-327] | 2.88[a] | – | –
80 | CC1(C)C2CCC1(C)C(NC(=O)c1snc(Cl)c1Cl)C2 (stereo not drawn) [E-II-017] | – | 5.02 | 4.96
81 | COc1ccc(CNc2nsc(C(=O)NCc3cncs3)c2Cl)cc1 [I-1323] | 2.39[a] | – | –
82 | CC(C)(C)C(=O)Nc1nsc(C(=O)NCC2CCCCC2)c1Cl [I-172] | 3.18[a] | – | –
83 | COc1ccc(CNc2nsc(C(=O)NCc3ccc(F)c(C(F)(F)F)c3)c2Cl)cc1 [I-1272] | 4.06[a] | – | –
84 | CCCS(C)=Nc1nsc(C(=O)NCC2CCCCC2)c1Cl (stereo not drawn) [II-089] | – | 2.23^[a] | –
85 | COc1ccc(CNc2nsc(C(=O)NCCc3cccs3)c2Cl)cc1 [I-1269] | 3.55[a] | – | –
86 | O=C(NCc1ccc(Cl)cc1)c1snc(NC2CC2)c1Cl [I-580] | 3.07[a] | – | –
87 | COc1ccc(CNc2nsc(C(=O)NCc3ccc(OC(F)F)cc3)c2Cl)cc1 [I-1229] | 3.63[a] | – | –
88 | Nc1nsc(C(=O)N(C2CCCCC2)C2CC2)c1Cl [I-980] | 2.78[a] | – | –
89 | COc1ccc(CNc2nsc(C(=O)N(c3cc(F)cc(F)c3)C3CC3)c2Cl)cc1 [I-918] | 4.10[a] | – | –
90 | Cc1cc(C)c(CNC(=O)c2snc(N)c2Cl)cc1C [I-328] | 2.78[a] | – | –
91 | CC1CC(C)(C)c2cccc(NC(=O)c3snc(N)c3Cl)c21 (stereo not drawn) [I-885] | 3.62[a] | – | –
92 | CC(=O)Nc1nsc(C(=O)NCc2ccccc2F)c1Cl [I-100] | 1.70[a] | – | –
93 | Nc1nsc(C(=O)N2CCc3cc(F)ccc3C2)c1Cl [II-019] | – | 2.09 | 2.05
94 | COc1ccc(CNc2nsc(C(=O)NC3Cc4ccccc4C3)c2Cl)cc1 [I-1248] | 3.90[a] | – | –
95 | COc1ccc(CNc2nsc(C(=O)NCCCn3ccnc3)c2Cl)cc1 [I-1244] | 1.36[a] | – | –
96 | N#Cc1ccc(CNC(=O)c2snc(NC(=O)C(F)(F)F)c2Cl)cc1 [I-812] | 2.12[a] | – | –
